Source: patent publication US20230183219A1, “CONDENSED SUBSTITUTED HYDROPYRROLES AS ANTAGONISTS OF THE MUSCARINIC ACETYLCHOLINE RECEPTOR M4” (Vanderbilt University, priority 2020, published 2023)

Biological target: T1, Human M4 (Homo sapiens, UniProt P08173)
T1 construct: Human or rat M4 cDNA, along with the chimeric G protein Gqi5, were transfected into Chinese hamster ovary (CHO-K1) cells; expressed in transfected cells; host or cells: CHO-K1 (Chinese hamster ovary, ATCC), stably co-expressing Gqi5
T1 sequence (P08173 1-479): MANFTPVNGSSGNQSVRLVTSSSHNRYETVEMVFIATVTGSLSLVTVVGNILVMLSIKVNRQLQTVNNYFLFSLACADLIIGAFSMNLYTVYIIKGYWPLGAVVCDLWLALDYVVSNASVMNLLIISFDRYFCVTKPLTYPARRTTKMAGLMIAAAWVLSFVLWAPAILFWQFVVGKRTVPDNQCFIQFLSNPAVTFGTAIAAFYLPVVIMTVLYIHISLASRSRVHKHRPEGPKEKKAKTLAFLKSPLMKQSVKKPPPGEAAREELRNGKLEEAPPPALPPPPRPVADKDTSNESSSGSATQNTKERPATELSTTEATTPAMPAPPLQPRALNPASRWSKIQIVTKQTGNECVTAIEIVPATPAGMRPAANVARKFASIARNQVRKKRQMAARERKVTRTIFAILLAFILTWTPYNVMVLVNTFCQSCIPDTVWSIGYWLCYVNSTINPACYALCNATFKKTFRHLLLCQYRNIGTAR
Experiment: mAChR M4 cell-based functional assay (calcium flux, decrease of EC80 acetylcholine response)
Conditions: for remaining activity at 30 µM: % ACh maximum at 30 μM, read-out: Human M4 Emin; for IC50: M4/Gqi5/CHO-K1 cells, decrease of response to EC80 acetylcholine
Protocol: Human or rat M4 cDNA, along with the chimeric G protein Gqi5, were transfected into Chinese hamster ovary (CHO-K1) cells purchased from the American Type Culture Collection using Lipofectamine2000. M4/Gqi5/CHO cells were grown in Ham's F-12 medium containing 10% heat-inactivated fetal bovine serum (FBS), 20 mM HEPES, 500 μg/mL G418 sulfate, and 200 μg/mL Hygromycin B.
For high throughput measurement of agonist-evoked increases in intracellular calcium, CHO-K1 cells stably expressing muscarinic receptors were plated in growth medium lacking G418 and hygromycin at 15,000 cells/20 μL/well in Greiner 384-well black-walled, tissue culture (TC)-treated, clear-bottom plates (VWR). Cells were incubated overnight at 37° C. and 5% CO2. The next day, cells were washed using an ELX 405 (BioTek) with assay buffer; the final volume was then aspirated to 20 μL. Next, 20 μL of a 2.3 μM stock of Fluo-4/acetoxymethyl ester (Invitrogen, Carlsbad, Calif.), prepared as a 2.3 mM stock in DMSO and mixed in a 1:1 ratio with 10% (w/v) Pluronic F-127 and diluted in assay buffer, was added to the wells and the cell plates were incubated for 50 min at 37° C. and 5% CO2. Dye was removed by washing with the ELX 405 and the final volume was aspirated to 20 μL. Compound master plates were formatted in a 10 point concentration-response curve (CRC) format (1:3 dilutions) in 100% DMSO with a starting concentration of 10 or 1 mM using a BRAVO liquid handler (Agilent). Test compound CRCs were then transferred to daughter plates (240 nL) using the Echo acoustic plate reformatter (Labcyte, Sunnyvale, Calif.) and then diluted into assay buffer (40 μL) to a 2×stock using a Thermo Fisher Combi (Thermo Fisher Scientific, Waltham, Mass.).
Calcium flux was measured using the Functional Drug Screening System (FDSS) 6000 or 7000 (Hamamatsu Corporation, Tokyo, Japan) as an increase in the fluorescent static ratio. Compounds were applied to cells (20 μL, 2×) using the automated system of the FDSS at 2 seconds into the protocol and the data were collected at 1 Hz. At 143 s, 10 μL of an EC20 concentration of the muscarinic receptor agonist acetylcholine was added (5×), followed by the addition of 12 μL of an EC80 concentration of acetylcholine at the 268 s time point (5×). Agonist activity was analyzed as a concentration-dependent increase in calcium mobilization upon compound addition. Positive allosteric modulator activity was analyzed as a concentration-dependent increase in the EC20 acetylcholine response. Antagonist activity was analyzed as a concentration-dependent decrease in the EC80 acetylcholine response; for the purposes of the tables herein, an IC50 (inhibitory concentration 50) was calculated as a concentration-dependent decrease of the response elicited by an EC80 concentration of acetylcholine. Concentration-response curves were generated using a four-parameter logistical equation in XLFit curve fitting software (IDBS, Bridgewater, N.J.) for Excel (Microsoft, Redmond, Wash.) or Prism (GraphPad Software, Inc., San Diego, Calif.) or the Dotmatics software platform (Dotmatics, Bishop's Stortford, UK).
Compounds were synthesized as described above. Activity (IC50 and Emin) was determined in the mAChR M4 cell-based functional assay as described above and the data are shown in Table 2.

Row | remaining activity at 30 µM | IC50 | Compound
1 | 3% | 12.5 nM | Cc1ccc(F)cc1-c1cc(C(F)(F)F)c(N[C@H]2C[C@@H]3CN(CC4CCCCO4)C[C@@H]3C2)nn1 (single isomer, unassigned) [Example 118]
2 | 2% | 2.1 nM | Cc1c(-c2cc(C(F)(F)F)c(N[C@H]3C[C@@H]4CN(CC5CCOCC5)C[C@@H]4C3)nn2)ccc2nn(C)cc12 [Example 39, (3aR,5s,6aS)-N-(6-(2,4-dimethyl-2H-indazol-5-yl)-4-(trifluoromethyl)pyridazin-3-yl)-2-((tetrahydro-2H-pyran-4-yl)methyl)octahydro-cyclopenta[c]pyrrol-5-amine]
3 | 3% | 207 nM | Fc1ccc(F)c(-c2cc(C(F)(F)F)c(N[C@H]3C[C@@H]4CN(CC5CCOCC5)C[C@@H]4C3)nn2)c1 [Example 38, (3aR,5s,6aS)-N-(6-(2,5-difluorophenyl)-4-(trifluoromethyl)pyridazin-3-yl)-2-((tetrahydro-2H-pyran-4-yl)methyl)octahydro-cyclopenta[c]pyrrol-5-amine]
4 | 2% | 467 nM | Fc1cccc(-c2cc(C(F)(F)F)c(N[C@H]3C[C@@H]4CN(Cc5ccccn5)C[C@@H]4C3)nn2)c1 [Example 105, (3aR,5s,6aS)-N-(6-(3-fluorophenyl)-4-(trifluoro-methyl)pyridazin-3-yl)-2-(pyridin-2-ylmethyl)octahydro-cyclopenta[c]pyrrol-5-amine]
5 | 3% | 217 nM | [2H][C@@]1(Oc2cc(C(F)(F)F)c(-c3cc(F)ccc3C)nn2)C[C@H]2CN(CC3CCOCC3)C[C@H]2C1 [Example 133, (3aR,5s,6aS)-5-((6-(5-fluoro-2-methylphenyl)-5-(trifluoromethyl)pyridazin-3-yl)oxy)-2-((tetrahydro-2H-pyran-4-yl)methyl)octahydro-cyclopenta[c]pyrrole-5-d]
6 | 4% | 274 nM | Cn1cc2cc(-c3cc(C(F)(F)F)c(N[C@H]4C[C@@H]5CN(Cc6ccccn6)C[C@@H]5C4)nn3)ccc2n1 [Example 106, (3aR,5s,6aS)-N-(6-(2-methyl-2H-indazol-5-yl)-4-(trifluoromethyl)pyridazin-3-yl)-2-(pyridin-2-ylmethyl)octahydro-cyclopenta[c]pyrrol-5-amine]
7 | 3% | 52.9 nM | Cc1ccc(C)c(-c2cc(C(F)(F)F)c(N[C@H]3C[C@@H]4CN(C[C@H]5COCCO5)C[C@@H]4C3)nn2)c1 [Example 72, (3aR,5s,6aS)-2-(((S)-1,4-dioxan-2-yl)methyl)-N-(6-(2,5-dimethylphenyl)-4-(trifluoromethyl)pyridazin-3-yl)octahydro-cyclopenta[c]pyrrol-5-amine]
8 | 3% | 176 nM | [2H]C([2H])([C@@H]1CCOC1)N1C[C@H]2C[C@H](Nc3nnc(-c4cc(C)ccc4C)cc3C(F)(F)F)C[C@H]2C1 [Example 115, (3aR,5s,6aS)-N-(6-(2,5-dimethylphenyl)-4-(trifluoro-methyl)pyridazin-3-yl)-2-(((S)-tetrahydrofuran-3-yl)methyl-d2)octahydro-cyclopenta[c]pyrrol-5-amine]
9 | 2% | 52.8 nM | Cc1ccc(C)c(-c2cc(C(F)(F)F)c(N[C@H]3C[C@@H]4CN(CC5CCOCC5)C[C@@H]4C3)nn2)c1 [Example 44, (3aR,5s,6aS)-N-(6-(2,5-dimethylphenyl)-4-(trifluoromethyl)pyridazin-3-yl)-2-((tetrahydro-2H-pyran-4-yl)methyl)octahydro-cyclopenta[c]pyrrol-5-amine]
10 | 6% | 2830 nM | [2H][C@@]1(Oc2nnc(-c3cc(F)ccc3C)cc2C(F)(F)F)C[C@H]2CN(Cc3ccccn3)C[C@H]2C1 [Example 134, (3aR,5s,6aS)-5-((6-(5-fluoro-2-methylphenyl)-4-(trifluoro-methyl)pyridazin-3-yl)oxy)-2-(pyridin-2-ylmethyl)octahydro-cyclopenta[c]pyrrole-5-d]

More lines, now with the values behind:

Row | Compound | remaining activity at 30 µM | IC50
11 | Cn1ncc2cc(-c3cc(C(F)(F)F)c(N[C@H]4C[C@@H]5CN(CC6CCOCC6)C[C@@H]5C4)nn3)ccc21 [Example 75, (3aR,5s,6aS)-N-(6-(1-methyl-1H-indazol-5-yl)-4-(trifluoromethyl)pyridazin-3-yl)-2-((tetrahydro-2H-pyran-4-yl)methyl)octahydro-cyclopenta[c]pyrrol-5-amine] | 3% | 45.1 nM
12 | Fc1cc(F)c(F)c(-c2cc(C(F)(F)F)c(N[C@H]3C[C@@H]4CN(CC5CCOCC5)C[C@@H]4C3)nn2)c1 [Example 43, (3aR,5s,6aS)-2-((tetrahydro-2H-pyran-4-yl)methyl)-N-(4-(trifluoromethyl)-6-(2,3,5-trifluorophenyl)pyridazin-3-yl)octahydro-cyclopenta[c]pyrrol-5-amine] | 3% | 290 nM
13 | Cn1cc2cc(-c3cc(C(F)(F)F)c(N[C@H]4C[C@@H]5CN(C[C@@H]6CC7CCC6O7)C[C@@H]5C4)nn3)ccc2n1 (stereo partly drawn) [Example 26, (3aR,5s,6aS)-2-(((2S)-7-oxabicyclo[2.2.1]heptan-2-yl)methyl)-N-(6-(2-methyl-2H-indazol-5-yl)-4-(trifluoromethyl)pyridazin-3-yl)octahydro-cyclopenta[c]pyrrol-5-amine] | 4% | 19.4 nM
14 | FC1(F)CCCN(c2cc(C(F)(F)F)c(N[C@H]3C[C@@H]4CN(CC5CCOCC5)C[C@@H]4C3)nn2)C1 [Example 138, (3aR,5s,6aS)-N-(6-(3,3-difluoro-piperidin-1-yl)-4-(trifluoro-methyl)pyridazin-3-yl)-2-((tetrahydro-2H-pyran-4-yl)methyl)octahydro-cyclopenta[c]pyrrol-5-amine] | 2% | 21.2 nM
15 | [2H]C([2H])(C1CCOCC1)N1C[C@H]2C[C@H](Nc3nnc(-c4cnn(C)c4)cc3C(F)(F)F)C[C@H]2C1 [Example 109, (3aR,5s,6aS)-N-(6-(1-methyl-1H-pyrazol-4-yl)-4-(trifluoro-methyl)pyridazin-3-yl)-2-((tetrahydro-2H-pyran-4-yl)methyl-d2)octahydro-cyclopenta[c]pyrrol-5-amine] | 3% | 71.8 nM
16 | Cn1cc2cc(-c3cc(C#N)c(N[C@H]4C[C@@H]5CN(C[C@H]6COCCO6)C[C@@H]5C4)nn3)ccc2n1 [Example 156, 3-(((3aR,5s,6aS)-2-(((S)-1,4-dioxan-2-yl)methyl)octahydro-cyclopenta[c]pyrrol-5-yl)amino)-6-(2-methyl-2H-indazol-5-yl)pyridazine-4-carbonitrile] | 12% | 10.1 nM
17 | Cn1cc2cc(-c3cc(C#N)c(N[C@H]4C[C@@H]5CN(C[C@H]6CC7CCC6O7)C[C@@H]5C4)nn3)ccc2n1 (stereo partly drawn) [Example 161, 3-(((3aR,5s,6aS)-2-(((2R)-7-oxabicyclo[2.2.1]heptan-2-yl)methyl)octahydro-cyclopenta[c]pyrrol-5-yl)amino)-6-(2-methyl-2H-indazol-5-yl)pyridazine-4-carbonitrile] | 5% | 2 nM
